From patent publication US7977120B2, “Fluorescent sensors for cellular amines” (The Curators of the University of Missouri, priority 2005, dated 2011)
“Also recorded” adds a separate entry of the source.

Experiments:
[1] = Titration of Sensor Ia with various analytes (UV-vis and fluorescence); assay type: binding; conditions: for Isat/I0 (λex = 446 nm): fluorescence intensity at saturation from theoretical fit to binding isotherm; for Isat/I0 (λex = 484 nm) / Isat/I0 (λex = 495 nm): fluorescence intensity at saturation from theoretical fit; for Kn (association constant): fluorescence spectroscopy, λem = 505 nm, error ± 20%, triplicate titration; for Isat/I0 (λex = 484 nm) / Kn (association constant): λex = 484 nm; for binding affinity for sensor Ia (in words): compared with catecholamines
Experimental: (§1) One exemplary coumarin-based sensor, 2-(((5-(7-(diethylamino)-3-formyl-2-oxo-2H-chromen-4-yl)pentyl)(methyl)amino)methyl)phenylboronic acid, sensor Ia, has been examined spectrophotometrically by titration with dopamine under neutral aqueous conditions in which a reducing agent is included to suppress oxidation of the air-sensitive catechol group.
The titration conditions are 10 μM sensor Ia with 100 mM Na2S2O3, 50 mM HEPES, 20 mM NaCl, pH=7.0, and at 37° C. […] See also, Org. Lett. 2004, 6(21), 3727-3730, which is incorporated herein by reference.
Binding constants (Ka) are determined by fluorescence titrations.

[2] = Fluorescence titration of quinolone sensors with lysine; assay type: binding; conditions: Table 3; for Ka, Lysine: 1:1 methanol-buffer
Text: (§2) The present invention further discloses that the Quinolone-Dimer Sensors III can also provide detection for diamine analytes. The certain exemplary dimer sensors IIIa-g have been probed spectroscopically by UV-vis and fluorescence titration experiments. […] Moreover, by variation of the linker portion of the sensor III, useful selectivities for different length diamino-analytes have been achieved.
(§3) First, the absorption spectra show trends similar to those observed with the coumarin sensors in which a large red shift in absorption maximum is observed upon addition of diamines to the sensors. […] As shown in FIG. 11(a), when sensor IIIg is titrated with diaminopropane, a 28 nm shift in absorbance is observed consistent with a shift from aldehyde to iminium ion forms. The red shift in absorption has been attributed to the hydrogen bond between the formed iminium ion and the carbonyl group of the chromophore. In fluorescence mode, by exciting the chromophore at 495 nm, a large increase in fluorescence was observed upon titration with the diamine (FIG. 11(b)). The fluorescence increase is fitted to a one-site binding isotherm which gave a binding constant of 6700 M^−1 with a maximum fluorescence increase at saturation (Isat/I0) of 6.6-fold.
(§4) Generally, the dimeric sensors were not as soluble as the monomeric derivatives, so binding studies were performed in 1:1 methanol:buffer (10 mM HEPES, pH=7.4). Water solubilizing groups, such as polyethylene groups, can be provided on the quinolone core in a straightforward synthetic manner. Binding constants and maximum fluorescence changes (Isat/I0) are provided in Table 4 for a few representative guests.

[3] = Fluorescence titration of quinolone sensors with diaminopentane; assay type: binding; conditions: Table 3; for Ka, Diaminopentane: 1:1 methanol-buffer
Text: (§5) The present invention further discloses that the Quinolone-Dimer Sensors III can also provide detection for diamine analytes. The certain exemplary dimer sensors IIIa-g have been probed spectroscopically by UV-vis and fluorescence titration experiments. […] Moreover, by variation of the linker portion of the sensor III, useful selectivities for different length diamino-analytes have been achieved. First, the absorption spectra show trends similar to those observed with the coumarin sensors in which a large red shift in absorption maximum is observed upon addition of diamines to the sensors. […] As shown in FIG. 11(a), when sensor IIIg is titrated with diaminopropane, a 28 nm shift in absorbance is observed consistent with a shift from aldehyde to iminium ion forms. The red shift in absorption has been attributed to the hydrogen bond between the formed iminium ion and the carbonyl group of the chromophore. In fluorescence mode, by exciting the chromophore at 495 nm, a large increase in fluorescence was observed upon titration with the diamine (FIG. 11(b)).

[4] = UV-vis and fluorescence titration of quinolone sensors with diaminopropane; assay type: binding; conditions: for Isat/I0, Diaminopropane / Ka, Diaminopropane: Table 3; for Ka, Diaminopropane: 1:1 methanol-buffer
Text: as §2, §3, §4

[5] = Fluorescence titration of quinolone sensors with diaminobutane; assay type: binding; conditions: Table 3; for Ka, Diaminobutane: 1:1 methanol-buffer
Text: as §5

[6] = Fluorescence titration of quinolone sensors with butylamine; assay type: binding; conditions: Table 3; for Ka, Butylamine: 1:1 methanol-buffer, error ±20%, duplicate titrations; for Isat/I0, Butylamine: maximum change in fluorescence from theoretical fit
[7] = Fluorescence titration of quinolone sensors with ornithine; assay type: binding; conditions: Table 3; for Ka, Ornithine: 1:1 methanol-buffer
Text: as §5

[8] = Relative affinity of dimer sensors across amine guests; assay type: binding; conditions: for guest selectivity (in words): comparison of guests, Tables 3 and 4
Text: The certain exemplary dimer sensors IIIa-g have been probed spectroscopically by UV-vis and fluorescence titration experiments.
Water solubilizing groups, such as polyethylene groups, can be provided on the quinolone core in a straightforward synthetic manner. Binding constants and maximum fluorescence changes (Isat/I0) are provided in Table 4 for a few representative guests.

[9] = tested on: bovine adrenal chromaffin cells; test: Staining chromaffin cells with the simple monomer IIa (confocal microscopy); assay type: cell-based; conditions: for staining of cells seen by confocal microscopy: 0.5 μM, 15 minutes, 37 C, excitation 488 nm
Experimental: The present invention further provides that the Quinolone-Monomer Sensors II can sense catecholamines and map their movements in a live cell. The initial proof of concept has been carried out by staining chromaffin cells with the simple monomer IIa. Specifically, several sets of chromaffin cells (which contain norepinephrine) were freshly prepared on coverslips and various concentrations of IIa in media were added.
A stock solution of 50 mM in DMSO was diluted in cell culture media to yield a final concentration of 0.5 uM. Cells were incubated in this solution at 37 C for 15 minutes and then the cells were washed with cell culture media without dye and observed using a confocal microscope at room temperature. The excitation wavelength was 488 nm.
Several sets of chromaffin cells (which contain norepinephrine) were freshly prepared on coverslips and various concentrations of 112 in media were added. […] The nuclei are clearly visible as dark regions. […] Given that the sensor should bind equally well to all amines, it is likely that that the sensor is actively accumulating in the vesicles.

[10] = UV-vis absorption / fluorescence titration of sensor Ia with dopamine; assay type: binding; conditions: excited at 484 nm, FIG. 8
Text: as §1, with “First, the sensors I produce a large chromophoric response when reacting with primary amines under physiological conditions. One” for “One”
The titration conditions are 10 μM sensor Ia with 100 mM Na2S2O3, 50 mM HEPES, 20 mM NaCl, pH=7.0, and at 37° C. […] Therefore, the inventive coumarin-based sensors I are selective for primary amines. See also, Org. Lett. 2004, 6(21), 3727-3730, which is incorporated herein by reference.
Table 2 also lists the fluorescence response of the sensor Ia as Isat/I0 (the maximum fluorescence change at saturation) for three different excitation wavelengths: 446 nm, 484 nm, and 495 nm. By exciting sensor Ia at the aldehyde absorption maximum (446 nm), a decrease in fluorescence has been observed for all analytes because the sensor shifted from the aldehyde to the iminium ion form. At higher wavelengths of excitation, simple amines give the typical large increase in fluorescence since the iminium ion preferentially absorbs at these wavelengths. […] The fluorescence quenching effect is found to be directly related to the catechol group. […]

SMILES	Isat/I0 (λex = 446 nm) [1]	Isat/I0 (λex = 484 nm) [1]	Isat/I0 (λex = 495 nm) [1]	Kn (association constant) [1] [M⁻¹]	Isat/I0, Lysine [2]	Ka, Lysine [2] [M⁻¹]	Ka, Butylamine [6] [M⁻¹]	Isat/I0, Butylamine [6]	further results
NC(CCC(=O)O)C(=O)O (stereo not shown)	0.87	7.0	25	6.8	–	–	–	–	–
NCCCCC(N)C(=O)O (stereo not shown)	0.75	8.0	25	4.0	–	–	–	–	–
NC1C(O)OC(CO)C(O)C1O (stereo not shown)	0.55	5.9	27	5.0	–	–	–	–	–
CN(C)c1ccc2c(Sc3cccc(Sc4c(C=O)c(=O)n(Cc5ccccc5)c5cc(N(C)C)ccc45)c3)c(C=O)c(=O)n(Cc3ccccc3)c2c1 [Sensor IIId, meta-Benzenedithiol Dimer]	–	–	–	–	4.7	2100	72	8.8	Isat/I0, Diaminopentane [3]: 15; Ka, Diaminopentane [3]: 1200 M⁻¹; Isat/I0, Diaminopropane [4]: 16; Ka, Diaminopropane ([4]; excitation 495 nm): 3400 M⁻¹; Isat/I0, Diaminobutane [5]: 15; Ka, Diaminobutane [5]: 1600 M⁻¹; Isat/I0, Ornithine [7]: 13; Ka, Ornithine [7]: 3300 M⁻¹; guest selectivity (in words) [8]: preference for ornithine
CN(C)c1ccc2c(Sc3ccccc3Sc3c(C=O)c(=O)n(Cc4ccccc4)c4cc(N(C)C)ccc34)c(C=O)c(=O)n(Cc3ccccc3)c2c1 [Sensor IIIe]	–	–	–	–	10	800	30	10	Isat/I0, Diaminopentane [3]: 4.3; Ka, Diaminopentane [3]: 350 M⁻¹; Isat/I0, Diaminopropane [4]: 8.5; Ka, Diaminopropane ([4]; excitation 495 nm): 350 M⁻¹; Isat/I0, Diaminobutane [5]: 10; Ka, Diaminobutane [5]: 160 M⁻¹; Isat/I0, Ornithine [7]: 7.3; Ka, Ornithine [7]: 680 M⁻¹
CN(C)c1ccc2c(SCCCSc3c(C=O)c(=O)n(Cc4ccccc4)c4cc(N(C)C)ccc34)c(C=O)c(=O)n(Cc3ccccc3)c2c1 [Sensor IIIf]	–	–	–	–	24	1460	31	26	Isat/I0, Diaminopentane [3]: 24; Ka, Diaminopentane [3]: 270 M⁻¹; Isat/I0, Diaminopropane [4]: 15; Ka, Diaminopropane ([4]; excitation 495 nm): 2100 M⁻¹; Isat/I0, Diaminobutane [5]: 24; Ka, Diaminobutane [5]: 690 M⁻¹; Isat/I0, Ornithine [7]: 22; Ka, Ornithine [7]: 550 M⁻¹; guest selectivity (in words) [8]: the preferred guest in both cases is lysine
CN(C)c1ccc2c(SCCCCCSc3c(C=O)c(=O)n(Cc4ccccc4)c4cc(N(C)C)ccc34)c(C=O)c(=O)n(Cc3ccccc3)c2c1 [Sensor IIIg]	–	–	–	–	27	2756	43	38	Isat/I0, Diaminopentane [3]: 18; Ka, Diaminopentane [3]: 2200 M⁻¹; Isat/I0, Diaminopropane [4]: 6.6; Ka, Diaminopropane ([4]; excitation 495 nm): 6700 M⁻¹; maximum fluorescence increase at saturation (Isat/I0) ([4]; excitation 495 nm, one-site binding isotherm, FIG. 11(b)): 6.6 fold; Isat/I0, Diaminobutane [5]: 27; Ka, Diaminobutane [5]: 1477 M⁻¹; Isat/I0, Ornithine [7]: 20; Ka, Ornithine [7]: 2400 M⁻¹; guest selectivity (in words) [8]: the preferred guest in both cases is lysine; extent of the difference, diamines bind better than butyl amine ([8]; ratio of binding constants, Table 3): 160 fold
CCSc1c(C=O)c(=O)n(Cc2ccccc2)c2cc(N(C)C)ccc12 [Sensor IIa, 1-benzyl-7-(dimethylamino)-4-(ethylthio)-2-oxo-1,2-dihydroquinoline-3-carbaldehyde]	–	–	–	–	41	129	76	32	membrane / cell permeability [9]: membrane permeable; staining of cells seen by confocal microscopy [9]: selectively stained; also recorded: punctate staining; staining of cells seen by confocal microscopy ([9]; listed as 112): selectively stained; optimal sensor concentration ([9]; 15 minutes of equilibration time): 0.5 µM
CCN(CC)c1ccc2c(CCCCCN(C)Cc3ccccc3B(O)O)c(C=O)c(=O)oc2c1 [Sensor Ia, 2-(((5-(7-(diethylamino)-3-formyl-2-oxo-2H-chromen-4-yl)pentyl)(methyl)amino)methyl)phenylboronic acid]	–	–	–	–	–	–	–	–	fluorescence on binding dopamine [10]: quenched upon binding dopamine
NCCc1ccc(O)cc1 [Tyramine]	0.41	8.0	52	250	–	–	–	–	binding affinity for sensor Ia (in words) [1]: significantly reduced affinity
NCCc1ccc(O)c(O)c1 [dopamine]	0.50	0.60	–	3400	–	–	–	–	–
CNCC(O)c1ccc(O)c(O)c1 (stereo not shown) [epinephrine]	0.73	0.76	0.77	5000	–	–	–	–	–
N[C@H]1C(O)O[C@H](CO)[C@@H](O)[C@@H]1O (stereo partly shown) [glucosamine]	–	–	–	–	–	–	–	–	binding affinity for sensor Ia (in words) [1]: affinity similar to the simple amines
N[C@@H](CCC(=O)O)C(=O)O [glutamate]	–	–	–	–	–	–	–	–	binding affinity for sensor Ia (in words) [1]: low affinity
NCC(O)c1ccc(O)c(O)c1 (stereo not shown) [norepinephrine]	0.39	0.46	–	6500	–	–	–	–	–
